A word on the viability: it is a read-out of living cells in per cent, often relative to untreated cells.

The data set in a line: in vitro. The following applies: human, hela cells, % viability.
Turning to `Cc1ccc2c(c1)N(CC(N)=O)C(=O)CO2` [CBK270208], the viability at 28.5 h, 10 µM came out at 92.9%.
As for `Cc1cccc(-c2noc(CNC(=O)CSc3ccccc3)n2)c1` [CBK270209], the figure is 98.3%.
`Cn1c(=O)n(C)c2cc(NC3=NS(=O)(=O)c4ccccc43)ccc21` [CBK270210]: the viability at 28.5 h, 10 µM is 91.9%.
Regarding `O=C(O)c1ccccc1CSc1ccccn1` [CBK270213], the viability at 28.5 h, 10 µM is 98%.
Regarding `Cc1ccc(NC(=O)CC2Nc3ccccc3OC2=O)cc1C` (stereo not drawn) [CBK270214], the viability at 28.5 h, 10 µM was 81.5%.
Turning to `Cc1nc2ccccc2nc1SCc1nc(N)nc(N2CCCCC2)n1` [CBK270218], the viability at 28.5 h, 10 µM worked out at 92.2%.
As for `CCC(=O)NCc1ccc(-c2nc3ncccc3o2)cc1` [CBK270220], the figure is 108%.
As to `Cc1nc2ccc(NC(=O)c3cccc(C(F)(F)F)c3)cc2nc1C` [CBK270221], the viability at 28.5 h, 10 µM turned out to be 88.2%.
Then `COC(=O)c1ccc(N2CCOCC2)c(NC(=O)COc2ccccc2)c1` [CBK270222], with 84.6%; and `O=C(Nc1cccc(-c2noc(CCc3ccccc3)n2)c1)c1cccs1` [CBK270225], with 87.4%; and `Cc1cc(C)nc(-n2ncc(C#N)c2N)n1` [CBK270227], with 87%.
On to `CCN(Cc1nc(-c2ccccc2)no1)C(=O)c1ccoc1C` [CBK270229], for which the viability at 28.5 h, 10 µM was 89.3%.
As for `Nc1nc(CN2CCN(c3ccccc3F)CC2)nc(N2CCCc3ccccc32)n1` [CBK270234], the viability at 28.5 h, 10 µM came to 87.4%.
As to `Cc1nnc(SCC(=O)NC2CC3CCC2C3)[nH]1` (stereo not drawn) [CBK270239], the viability at 28.5 h, 10 µM came to 88.1%.
As for `CC(C)(C)c1ccc(-c2cc(C3CCNCC3)n[nH]2)cc1` [CBK270240], the figure is 94%; as for `COCC(C)NC(=O)C1CCCN(S(=O)(=O)c2ccc(OC)c(C)c2)C1` (stereo not drawn) [CBK270242], 86%; as for `O=C(Nc1cccc(-c2noc(Cc3ccccc3)n2)c1)c1cccs1` [CBK270244], 101%.
As for `COc1ccc(C(=O)Nc2ccc(N3CCN(C(=O)C(C)(C)C)CC3)cc2)cc1OC` [CBK270245], the viability at 28.5 h, 10 µM is 90.6%.
As to `O=C(CSc1nncc(=O)[nH]1)NCc1ccccc1` [CBK270246], the viability at 28.5 h, 10 µM is 85.3%.
`COC(=O)CSc1nnc(-c2cc(Cl)ccc2OC)[nH]1` [CBK270248]: the viability at 28.5 h, 10 µM was determined as 97%.
On to `CCOc1ccc(S(=O)(=O)NCCOC)cc1Cl` [CBK270251], for which the viability at 28.5 h, 10 µM is 91.5%.
For `COc1cc(CNCc2ccc(F)cc2)cc(Cl)c1OCC(N)=O` [CBK270256C], the viability at 28.5 h, 10 µM is 89%.
As for `CCOc1cccc2cc(C(=O)N3CCN(Cc4ccccc4)CC3)c(=O)oc12` [CBK270259C], the figure is 74.3%.
As for `Fc1cccc(-c2nc(-c3cccnc3)no2)c1` [CBK270260], the figure is 92.6%; as for `CCOC(=O)CSc1nc(-c2ccc3c(c2)OCO3)ccc1C#N` [CBK270262], 87.6%.
On to `COc1ccc(-c2noc(CN(C(C)=O)C3CCCCC3)n2)cc1` [CBK270264], for which the viability at 28.5 h, 10 µM stood at 111%.
As for `Cc1ccc2c(N)c(C(=O)c3ccc4c(c3)OCCO4)sc2n1` [CBK270265], the figure is 84.2%; as for `CCCc1cc(O)n(-c2nc3ccccc3[nH]2)n1` [CBK270269], 82.7%.
With `CC(C(=O)N1CCOCC1)N(c1cc(Cl)ccc1Cl)S(C)(=O)=O` (stereo not drawn) [CBK270270], the viability at 28.5 h, 10 µM worked out at 88.8%.
Then `COc1cccc(CNCc2ccco2)c1OCc1ccccc1F` [CBK270271C], with 92.6%; and `O=C(Nc1ccccc1C(=O)N1CCOCC1)C1CCN(C(=O)c2ccco2)CC1` [CBK270272], with 105%; and `Cc1ccc(Cc2c(C)[nH]c3[nH]n(-c4ccccc4)c(=O)c3c2=O)cc1` [CBK270273], with 83.7%.
With `O=C(NCCc1cccs1)C(c1ccccc1)c1ccccc1` [CBK270275], the viability at 28.5 h, 10 µM stood at 90.1%.
For the compound `O=C(O)c1ccc(CN2C(=O)COc3ccccc32)o1` [CBK270276], the viability at 28.5 h, 10 µM was determined as 104%.
Take `CNS(=O)(=O)c1cc(C(=O)NCc2ccccc2)ccc1OC` [CBK270277]: the viability at 28.5 h, 10 µM was 94.9%.
For `CC(O)CNCc1ccccc1OCc1ccccc1F` (stereo not drawn) [CBK270278C], the viability at 28.5 h, 10 µM was 93.2%.
With `COc1ccc(-c2c3c(nc4sc(C#N)c(N)c24)CCCC3)cc1` [CBK270279], the viability at 28.5 h, 10 µM amounted to 80%.
With `COc1ccc(NC(=O)C2CC(=O)NC3=C2C(=O)CC(c2ccco2)C3)cc1` (stereo not drawn) [CBK270282], the viability at 28.5 h, 10 µM is 90.6%.
In the case of `O=C(Nc1cccc(-c2noc(-c3ccccn3)n2)c1)c1cccs1` [CBK270283], the viability at 28.5 h, 10 µM is 88.9%.
As to `O=C1CC(c2ccccc2O)CC2=C1C=Nc1ccccc1N2` (stereo not drawn) [CBK270287], the viability at 28.5 h, 10 µM amounted to 97.4%.
As for `CCOC(=O)c1ccsc1NC(=O)C1CC=CCC1C(=O)O` (stereo not drawn) [CBK270291], the figure is 97.5%.
For `NC(=O)c1ccccc1NC(=O)CN1CCN(Cc2cccc(F)c2)CC1` [CBK270292], the viability at 28.5 h, 10 µM was 85.9%.
Turning to `O=C(O)C1CCCCC1C(=O)N1CCN(Cc2cccc3ccccc23)CC1` (stereo not drawn) [CBK270293], the viability at 28.5 h, 10 µM stood at 91.2%.
With `Cc1ccccc1CN1CCN(CC(=O)Nc2ccccc2C(N)=O)CC1` [CBK270296], the viability at 28.5 h, 10 µM is 94.1%.
For the compound `Cc1c(Cl)cccc1NC(=O)CSc1nccn1C` [CBK270297], the viability at 28.5 h, 10 µM came out at 91.5%.
As for `O=C(O)COCC(=O)N1CCN(CCc2ccccc2)CC1` [CBK270298], the viability at 28.5 h, 10 µM was 107%.
For the compound `Cc1cccc(-c2nc(CN3CCOCC3)cs2)c1` [CBK270299], the viability at 28.5 h, 10 µM was found to be 103%.
In the case of `CCCN1CCN(CC(=O)NCc2ccco2)CC1` [CBK270300], the viability at 28.5 h, 10 µM is 84.2%.
With `COc1ccc(NC(=O)C2CCCCC2C(=O)O)c(C)c1` (stereo not drawn) [CBK270301], the viability at 28.5 h, 10 µM was 83.9%.
As for `CCn1cc(S(=O)(=O)Nc2cc(C)on2)cn1` [CBK270302], the figure is 84.3%; as for `COc1ccc(NC(=O)CSc2nnc(C3CC3)n2C)c(OC)c1` [CBK270303], 81.9%.
Consider `CCn1cc(S(=O)(=O)NCc2ccccc2OC)cn1` [CBK270304], for which the viability at 28.5 h, 10 µM amounted to 98.1%.
On to `COc1cc(NC(=O)CSc2nncn2C)c(OC)cc1Cl` [CBK270307], for which the viability at 28.5 h, 10 µM stood at 86.4%.
`Cc1occc1-c1nnc(SCC(=O)Nc2ccccc2)n1C` [CBK270308]: the viability at 28.5 h, 10 µM was 84.9%.
On to `CN(C)CCNC(=O)c1cccc(Oc2ccccc2)c1` [CBK270310], for which the viability at 28.5 h, 10 µM was found to be 83.1%.
As for `CCc1cc(C(=O)OC)c(NC(=O)C2C3C=CC(C3)C2C(=O)O)s1` (stereo not drawn) [CBK270315], the figure is 94.9%; as for `Cc1sc(NC(=O)c2ccc(F)cc2Cl)c(C(=O)NCc2cccnc2)c1C` [CBK270319], 82.9%.
On to `NC(=O)c1ccccc1NC(=O)CN1CCN(Cc2cccc(Cl)c2)CC1` [CBK270320], for which the viability at 28.5 h, 10 µM is 103%.
On to `CCn1cc(S(=O)(=O)N2CCC3(CC2)OCCO3)cn1` [CBK270321], for which the viability at 28.5 h, 10 µM was 112%.
Then `Cc1nn(S(=O)(=O)c2cccc3nsnc23)c(C)c1Cl` [CBK270323], with 92.6%.
As for `O=S(=O)(c1ccc(Cl)s1)N1CCN(Cc2ccc3c(c2)OCO3)CC1` [CBK270324], the viability at 28.5 h, 10 µM is 89.5%.
Then `COC(=O)c1sccc1NC(=O)c1ccc(F)cc1Cl` [CBK270325], with 88.2%; and `CCCN1CCN(S(=O)(=O)c2ccc(C)cc2)CC1` [CBK270326], with 90%; and `CC(NC(=O)c1cccc(Oc2ccccc2)c1)c1ccncc1` (stereo not drawn) [CBK270327], with 91.3%.
On to `CCn1cc(S(=O)(=O)N2CCN(c3cccc(C(F)(F)F)c3)CC2)cn1` [CBK270328], for which the viability at 28.5 h, 10 µM amounted to 93.6%.
Turning to `O=C(O)C1CCCCC1C(=O)N1CCN(Cc2cccc(Cl)c2)CC1` (stereo not drawn) [CBK270330], the viability at 28.5 h, 10 µM is 85%.
Then `O=C(Nc1ccc2c(c1)OCO2)N1CCN(c2ccc(F)cc2)CC1` [CBK270332], with 86.3%; and `O=C(NCc1ccco1)c1cccc(Oc2ccccc2)c1` [CBK270333], with 89.3%.
As for `O=C(O)C1C2C=CC(C2)C1C(=O)N1CCN(Cc2ccccc2Cl)CC1` (stereo not drawn) [CBK270334], the figure is 93%.
With `CCN1CCN(C(=O)C2CCCCC2C(=O)O)CC1` (stereo not drawn) [CBK270337], the viability at 28.5 h, 10 µM came out at 111%.
For `O=C(Nc1ccc2c(c1)C(=O)NC2=O)c1ccccc1` [CBK270384], the viability at 28.5 h, 10 µM was determined as 86.5%.
With `Nc1nonc1-n1nnc(CN2CCCCC2)c1CN1CCCCC1` [CBK270636], the viability at 28.5 h, 10 µM amounted to 82.3%.
In the case of `CC(=O)N(C)c1ccc(NC(=O)c2ccccc2C(=O)O)cc1` [CBK270693], the viability at 28.5 h, 10 µM was determined as 97.9%.
As to `CSc1nc(-c2ccccc2)nc(N)c1C(C)=O` [CBK270762], the viability at 28.5 h, 10 µM turned out to be 90.1%.
Consider `CC1(C)CCCC2=C1CC(C(=O)O)C(C(=O)O)C2` (stereo not drawn) [CBK272329], for which the viability at 28.5 h, 10 µM is 97.4%.
As to `CC(C)(C)c1cn2c3ccccc3nc2n1CCO` [CBK273412], the viability at 28.5 h, 10 µM was 102%.
On to `O=C(O)c1ccc(N2C(=O)CC(N3CCC(Cc4ccccc4)CC3)C2=O)cc1` (stereo not drawn) [CBK273484], for which the viability at 28.5 h, 10 µM amounted to 93.4%.
As for `O=C(O)C1Nc2c(C(=O)N3CCOCC3)cccc2C2C=CCC12` (stereo not drawn) [CBK275006], the figure is 104%.
Then `O=C(CSCc1ccc(Cl)cc1Cl)Nc1ccc(O)cc1C(=O)O` [CBK275322], with 95%.
Then `O=C(O)c1ccc(NC(=O)c2ccccc2F)c(NC(=O)c2ccccc2F)c1` [CBK275363], with 101%; and `CCOc1ccccc1NC(=O)CCCC(=O)O` [CBK275986], with 98.9%; and `O=C(O)CCSC1CC(=O)N(c2ccc(F)cc2)C1=O` (stereo not drawn) [CBK276120], with 89.9%.
`CSCCC(NC(=O)c1ccc(C#CC(C)(C)O)cc1)C(=O)O` (stereo not drawn) [CBK276698]: the viability at 28.5 h, 10 µM stood at 93.9%.
As for `COCCCNCCn1cnc2c(N)ncnc21` [CBK277059], the viability at 28.5 h, 10 µM is 88.9%.

The record behind these values is article PMC12040169 (PLOS Biology, 2025).
